Patent US20060073121A1, “Spray formulation for pungency enhancement in Capsicum” (priority 2004, published 2006)

System: Capsicum frutescens Mill
Test: Spray of abiotic elicitors to flowers of field-grown plants; HPLC of phenyl propanoid intermediates and capsaicinoids in harvested fruits
Format: in vivo
From the text: The seedlings of Capsicum frutescens Mill were raised in soil bed. The seeds of C. frutescens were collected from wild from BR Hills, […]. The 2 months old seedling plants were transplanted to the soil and grown under controlled conditions to avoid cross-pollination after the onset of flowering. The plants were established well 2 months after transplantation and started to flower by 90 days with proper agronomic practices with regard to irrigation, fertilizer application, weeding and care from major pests and diseases. The abiotic elicitor (Methyl Jasmonate) was purchased from Duchefa Pvt.LTD. Methyl Jasmonate stock solution was prepared and later used at different concentrations (1 mM, 2.5 mM and 5 mM) for spraying to the whole plant containing flowers, completely opened flowers, and braches containing flowers. The flowers of C. frutescens were sprayed with water, which was taken as control. […] The extracted samples were centrifuged at 4000 rpm for 10 minutes. The samples were subjected to High Performance Liquid Chromatography for quantification of phenyl proponoid intermediates and major Capsaicinoids. […] The detection was at 236 nm and flow rate was maintained at 1 ml/min. […] The reagent used was of HPLC grade. The intermediates of phenyl proponoid pathway (Phenylalanine, Cinnamic acid, Coumaric acid, Caffeic acid, Ferulic acid and Vanillylamine) and two major Capsaicinoids (Capsaicin and Dihydrocapsaicin) were purchased from Sigma Co. […] Standard deviation of samples was calculated according to Tukey's method. The seedlings of Capsicum frutescens Mill were raised in soil bed. The seeds of C. frutescens were collected from BR. Hills, […]. The 2 months old seedling plants were transplanted to the soil and grown under controlled conditions to avoid cross-pollination after the onset of flowering. The plants were established well two months after transplantation and started to flower by 90 days with proper agronomic practices with regard to irrigation, fertilizer application, weeding and care from major pests and diseases. […] USA. […] The flowers of C. frutescens were sprayed with water, which was taken as control. […] The extracted samples were centrifuged at 4000 rpm for 10 minutes. The samples were subjected to High Performance Liquid Chromatography for quantification of phenyl proponoid intermediates and major Capsaicinoids. […] The detection was at 236nm and flow rate was maintained at 1 ml/min. […] The reagent used was of HPLC grade. The intermediates of phenyl propanoid pathway (Phenylalanine, Cinnamic acid, Coumaric acid, Caffeic acid, Ferulic acid and Vanillylamine) and two major Capsaicinoids (Capsaicin and Dihydrocapsaicin) were purchased from Sigma Co. […] Standard deviation of samples was calculated according to Tukey's method.

[1] = fruits 25 days after anthesis, 1 mM sprayed
[2] = fruits 25 days after anthesis, 2.5 mM sprayed
[3] = fruits 25 days after anthesis, 5 mM sprayed
[4] = fruits 30 days after anthesis, 1 mM sprayed
[5] = fruits 30 days after anthesis, 2.5 mM sprayed
[6] = fruits 30 days after anthesis, 5 mM sprayed
[7] = fruits 35 days after anthesis, 1 mM sprayed
[8] = fruits 35 days after anthesis, 2.5 mM sprayed
[9] = fruits 35 days after anthesis, 5 mM sprayed
[10] = fruits 40 days after anthesis, 1 mM sprayed
[11] = fruits 40 days after anthesis, 2.5 mM sprayed
[12] = fruits 40 days after anthesis, 5 mM sprayed

CC/C=C\CC1C(=O)CCC1CC(=O)OC (centres unmarked) [Methyl Jasmonate]
Caffeic Acid level [1]: 3 ± 0.9 µM
Capsaicin level [1]: 17 ± 1.8 µM
Cinnamic Acid level [1]: 10 ± 1.0 µM
Coumaric Acid level [1]: 44 ± 3.2 µM
Dihydrocapsaicin level [1]: 5 ± 0.8 µM
Ferulic Acid level [1]: 33 ± 1.9 µM
Phenylalanine level [1]: 388 ± 8.2 µM
Vanillylamine level [1]: 49 ± 3.4 µM
Caffeic Acid level [2]: 3 ± 0.8 µM
Capsaicin level [2]: 18 ± 1.2 µM
Cinnamic Acid level [2]: 11 ± 0.8 µM
Coumaric Acid level [2]: 45 ± 3.8 µM
Dihydrocapsaicin level [2]: 6 ± 0.5 µM
Ferulic Acid level [2]: 49 ± 2.5 µM
Phenylalanine level [2]: 424 ± 9.2 µM
Vanillylamine level [2]: 63 ± 4.5 µM
Caffeic Acid level [3]: 3 ± 0.6 µM
Capsaicin level [3]: 16 ± 1.4 µM
Cinnamic Acid level [3]: 9 ± 0.8 µM
Coumaric Acid level [3]: 42 ± 3.9 µM
Dihydrocapsaicin level [3]: 7 ± 0.8 µM
Ferulic Acid level [3]: 48 ± 3.4 µM
Phenylalanine level [3]: 391 ± 10.0 µM
Vanillylamine level [3]: 42 ± 2.9 µM
Caffeic Acid level [4]: 4 ± 1.1 µM
Capsaicin level [4]: 41 ± 3.5 µM
Cinnamic Acid level [4]: 12 ± 0.9 µM
Coumaric Acid level [4]: 38 ± 3.4 µM
Dihydrocapsaicin level [4]: 13 ± 1.0 µM
Ferulic Acid level [4]: 68 ± 5.4 µM
Phenylalanine level [4]: 563 ± 12.2 µM
Vanillylamine level [4]: 61 ± 5.4 µM
Caffeic Acid level [5]: 12 ± 1.2 µM
Capsaicin level [5]: 48 ± 3.6 µM
Cinnamic Acid level [5]: 35 ± 2.1 µM
Coumaric Acid level [5]: 47 ± 4.2 µM
Dihydrocapsaicin level [5]: 14 ± 0.9 µM
Ferulic Acid level [5]: 80 ± 4.5 µM
Phenylalanine level [5]: 649 ± 8.7 µM
Vanillylamine level [5]: 96 ± 6.9 µM
Caffeic Acid level [6]: 10 ± 0.9 µM
Capsaicin level [6]: 48 ± 6.8 µM
Cinnamic Acid level [6]: 27 ± 1.8 µM
Coumaric Acid level [6]: 45 ± 3.8 µM
Dihydrocapsaicin level [6]: 13 ± 0.7 µM
Ferulic Acid level [6]: 73 ± 4.5 µM
Phenylalanine level [6]: 627 ± 7.4 µM
Vanillylamine level [6]: 58 ± 5.1 µM
Caffeic Acid level [7]: 12 ± 1.2 µM
Capsaicin level [7]: 36 ± 3.8 µM
Cinnamic Acid level [7]: 23 ± 1.5 µM
Coumaric Acid level [7]: 44 ± 4.2 µM
Dihydrocapsaicin level [7]: 15 ± 1.2 µM
Ferulic Acid level [7]: 122 ± 8 µM
Phenylalanine level [7]: 879 ± 5.9 µM
Vanillylamine level [7]: 111 ± 10.8 µM
Caffeic Acid level [8]: 37 ± 3.2 µM
Cinnamic Acid level [8]: 68 ± 4.5 µM
Coumaric Acid level [8]: 84 ± 4.1 µM
Dihydrocapsaicin level [8]: 19 ± 1.3 µM
Ferulic Acid level [8]: 150 ± 8 µM
Phenylalanine level [8]: 1052 ± 11 µM
Vanillylamine level [8]: 107 ± 10.2 µM
Caffeic Acid level [9]: 20 ± 1.2 µM
Capsaicin level [9]: 35 ± 2.9 µM
Cinnamic Acid level [9]: 36 ± 3.2 µM
Coumaric Acid level [9]: 59 ± 3.8 µM
Dihydrocapsaicin level [9]: 12 ± 1.0 µM
Ferulic Acid level [9]: 121 ± 12 µM
Phenylalanine level [9]: 921 ± 8.9 µM
Vanillylamine level [9]: 73 ± 7.1 µM
Caffeic Acid level [10]: 9 ± 0.8 µM
Capsaicin level [10]: 33 ± 2.4 µM
Cinnamic Acid level [10]: 14 ± 1.2 µM
Coumaric Acid level [10]: 39 ± 1.9 µM
Dihydrocapsaicin level [10]: 15 ± 1.2 µM
Ferulic Acid level [10]: 107 ± 11 µM
Phenylalanine level [10]: 516 ± 8.4 µM
Vanillylamine level [10]: 78 ± 6.8 µM
Caffeic Acid level [11]: 15 ± 1.2 µM
Capsaicin level [11]: 42 ± 3.2 µM
Cinnamic Acid level [11]: 23 ± 1.9 µM
Coumaric Acid level [11]: 73 ± 2.4 µM
Dihydrocapsaicin level [11]: 18 ± 1.4 µM
Ferulic Acid level [11]: 114 ± 12 µM
Phenylalanine level [11]: 584 ± 9.2 µM
Vanillylamine level [11]: 98 ± 5.8 µM
Caffeic Acid level [12]: 13 ± 1.3 µM
Capsaicin level [12]: 28 ± 3.8 µM
Cinnamic Acid level [12]: 20 ± 1.5 µM
Coumaric Acid level [12]: 44 ± 4.1 µM
Dihydrocapsaicin level [12]: 11 ± 1.3 µM
Ferulic Acid level [12]: 67 ± 4.5 µM
Phenylalanine level [12]: 547 ± 7.4 µM
Vanillylamine level [12]: 61 ± 5.1 µM
